Results taken from patent CN103800339A, “一类治疗精神分裂症的化合物及其用途” (Individual, priority 2012, dated 2014).

System: ketamine schizophrenia model rats (大鼠分裂症氯胺酮模型大鼠)
Test: Social interaction test in ketamine-induced schizophrenia model rats (total activity time, aggressive and non-aggressive behaviour)
Assay type: in vivo, rat
Details: n=20, mean±SD
[1] = day of drug withdrawal, after 7 days i.m. dosing (compounds A-E 1 mg/kg; risperidone 2 mg/kg), ketamine model Wistar rats, 7 min test, * P<0.05, ** P<0.01 vs model

Question: With `Cc1nc2n(c(=O)c1CCN1CCC(c3noc4cc(F)ccc34)CC1)CCCC2` [利培酮] as the compound, how does the total activity time (7 days after drug withdrawal, after 7 days i.m. dosing (compounds A-E 1 mg/kg; risperidone 2 mg/kg), ketamine model Wistar rats, 7 min test, * P<0.05, ** P<0.01 vs model) read?
Answer: The total activity time was 18.2±6.3.

Question: What about the total activity time (before dosing (baseline), male Wistar rats, ketamine 30 mg/kg i.p. 5 days) of the same compound?
Answer: Its total activity time is 13.9±2.9.

Question: What about the “number of aggressive behaviours” value [1] of the same compound?
Answer: Its value is 3.1±1.5.

Question: What about the “number of non-aggressive behaviours” value [1] of the same compound?
Answer: The value was 6.3±3.9.

Question: What about the total activity time [1] of the same compound?
Answer: The total activity time was 23.2±6.1.
